From PMC12090182, “Repurposing of the RIPK1-Selective Benzo[1,4]oxazepin-4-one Scaffold for the Development of a Type III LIMK1/2 Inhibitor” (ACS Chemical Biology, 2025)

Experiments:
Assay in all cases: biochemical
Format in all cases: binding
[1] = biological target: 468 kinases including some pathogenic mutants (Homo sapiens, UniProt Q9NYL2); conditions: ZAK (Entrez ZAK), 1000 nM; read-out: Percent Control
[2] = biological target: 468 kinases including some pathogenic mutants (Homo sapiens, UniProt P50750); conditions: CDK9 (Entrez CDK9), 100 nM; read-out: Percent Control
[3] = biological target: 468 kinases including some pathogenic mutants (Homo sapiens, UniProt P10721, V559D); conditions: read-out: Percent Control
[4] = biological target: 468 kinases including some pathogenic mutants (Homo sapiens, UniProt Q56UN5); conditions: YSK4 (Entrez MAP3K19), 1000 nM; read-out: Percent Control
[5] = biological target: 468 kinases including some pathogenic mutants (Homo sapiens, UniProt Q6ZWH5); conditions: NEK10 (Entrez NEK10), 100 nM; read-out: Percent Control
468 kinases including some pathogenic mutants (Homo sapiens, UniProt Q6ZWH5), sequence (Q6ZWH5 whole entry, stated change not applied): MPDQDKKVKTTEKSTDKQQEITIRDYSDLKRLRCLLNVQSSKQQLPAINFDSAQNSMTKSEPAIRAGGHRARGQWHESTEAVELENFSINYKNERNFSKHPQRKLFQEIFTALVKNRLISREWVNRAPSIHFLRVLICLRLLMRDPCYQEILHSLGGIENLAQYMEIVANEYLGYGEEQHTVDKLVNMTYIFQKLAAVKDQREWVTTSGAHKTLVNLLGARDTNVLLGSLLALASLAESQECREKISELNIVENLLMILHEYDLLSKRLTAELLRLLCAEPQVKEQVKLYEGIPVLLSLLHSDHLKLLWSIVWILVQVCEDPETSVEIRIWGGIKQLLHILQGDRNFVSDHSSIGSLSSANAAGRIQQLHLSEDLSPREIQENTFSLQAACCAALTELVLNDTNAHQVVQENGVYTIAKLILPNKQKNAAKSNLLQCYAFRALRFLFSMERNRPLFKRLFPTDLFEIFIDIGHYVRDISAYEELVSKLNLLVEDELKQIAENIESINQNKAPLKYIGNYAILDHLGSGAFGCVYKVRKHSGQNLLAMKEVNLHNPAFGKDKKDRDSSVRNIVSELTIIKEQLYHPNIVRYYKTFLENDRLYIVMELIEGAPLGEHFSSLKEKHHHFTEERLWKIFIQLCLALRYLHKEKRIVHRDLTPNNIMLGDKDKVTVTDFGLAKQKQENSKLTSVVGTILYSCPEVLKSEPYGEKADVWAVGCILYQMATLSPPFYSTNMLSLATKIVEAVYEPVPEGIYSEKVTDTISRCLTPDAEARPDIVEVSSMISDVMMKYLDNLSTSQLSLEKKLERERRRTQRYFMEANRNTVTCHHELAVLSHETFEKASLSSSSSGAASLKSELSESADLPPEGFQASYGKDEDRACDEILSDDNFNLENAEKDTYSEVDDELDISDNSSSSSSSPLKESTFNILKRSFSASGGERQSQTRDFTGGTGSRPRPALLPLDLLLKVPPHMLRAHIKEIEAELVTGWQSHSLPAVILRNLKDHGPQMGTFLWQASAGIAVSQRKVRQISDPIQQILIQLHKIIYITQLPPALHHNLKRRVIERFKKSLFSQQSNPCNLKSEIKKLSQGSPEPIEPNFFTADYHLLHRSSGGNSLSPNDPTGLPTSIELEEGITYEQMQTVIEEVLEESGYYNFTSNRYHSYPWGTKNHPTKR

[6] = biological target: 468 kinases including some pathogenic mutants (Homo sapiens, UniProt Q9UM73, C1156Y); conditions: read-out: Percent Control
[7] = biological target: 468 kinases including some pathogenic mutants (Homo sapiens, UniProt Q7L7X3); conditions: TAOK1 (Entrez TAOK1), 1000 nM; read-out: Percent Control
468 kinases including some pathogenic mutants (Homo sapiens, UniProt Q7L7X3), sequence (Q7L7X3 whole entry, stated change not applied): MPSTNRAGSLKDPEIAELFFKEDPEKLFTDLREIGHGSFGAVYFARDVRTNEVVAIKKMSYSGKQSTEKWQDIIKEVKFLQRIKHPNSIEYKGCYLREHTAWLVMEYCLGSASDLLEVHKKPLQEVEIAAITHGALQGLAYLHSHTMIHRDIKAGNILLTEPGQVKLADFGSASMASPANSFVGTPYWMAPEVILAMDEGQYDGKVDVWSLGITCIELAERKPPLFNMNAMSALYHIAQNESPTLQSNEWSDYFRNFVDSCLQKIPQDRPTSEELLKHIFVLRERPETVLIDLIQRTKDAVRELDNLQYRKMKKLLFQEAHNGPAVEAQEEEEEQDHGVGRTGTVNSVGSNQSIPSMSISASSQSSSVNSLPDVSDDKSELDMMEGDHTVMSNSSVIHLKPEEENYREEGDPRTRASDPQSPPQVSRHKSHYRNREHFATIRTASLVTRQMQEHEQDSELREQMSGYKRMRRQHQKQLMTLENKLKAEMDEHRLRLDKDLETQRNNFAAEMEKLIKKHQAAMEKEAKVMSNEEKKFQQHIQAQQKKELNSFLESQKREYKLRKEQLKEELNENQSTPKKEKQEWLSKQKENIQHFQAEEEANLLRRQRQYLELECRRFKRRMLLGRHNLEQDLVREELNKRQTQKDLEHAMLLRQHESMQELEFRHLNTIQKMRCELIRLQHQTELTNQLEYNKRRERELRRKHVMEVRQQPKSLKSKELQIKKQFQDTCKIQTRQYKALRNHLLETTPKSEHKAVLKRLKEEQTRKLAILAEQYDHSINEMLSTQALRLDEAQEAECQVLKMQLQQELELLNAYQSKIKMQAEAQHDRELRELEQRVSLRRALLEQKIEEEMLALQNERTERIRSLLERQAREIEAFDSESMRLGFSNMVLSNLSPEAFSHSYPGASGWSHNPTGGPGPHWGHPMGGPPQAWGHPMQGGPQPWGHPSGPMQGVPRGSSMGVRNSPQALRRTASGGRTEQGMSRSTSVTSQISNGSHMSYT

[8] = biological target: 468 kinases including some pathogenic mutants (Homo sapiens, UniProt P00519, H396P)
[9] = biological target: 468 kinases including some pathogenic mutants (Homo sapiens, UniProt Q32MK0); conditions: MLCK (Entrez MYLK3), 100 nM; read-out: Percent Control
[10] = biological target: 468 kinases including some pathogenic mutants (Homo sapiens, UniProt Q9P0L2); conditions: MARK1 (Entrez MARK1), 1000 nM; read-out: Percent Control
[11] = biological target: 468 kinases including some pathogenic mutants (Homo sapiens, UniProt P52333); conditions: JAK3(JH1domain-catalytic) (Entrez JAK3), 100 nM; read-out: Percent Control
[12] = biological target: 468 kinases including some pathogenic mutants (Homo sapiens, UniProt Q13976); conditions: PRKG1 (Entrez PRKG1), 100 nM; read-out: Percent Control
[13] = biological target: 468 kinases including some pathogenic mutants (Homo sapiens, UniProt Q9H0K1); conditions: SIK2 (Entrez SIK2), 1000 nM; read-out: Percent Control
[14] = biological target: 468 kinases including some pathogenic mutants (Homo sapiens, UniProt P17948); conditions: FLT1 (Entrez FLT1), 100 nM; read-out: Percent Control
[15] = biological target: 468 kinases including some pathogenic mutants (Homo sapiens, UniProt Q9UKE5); conditions: TNIK (Entrez TNIK), 100 nM; read-out: Percent Control
[16] = biological target: 468 kinases including some pathogenic mutants (Homo sapiens, UniProt Q04771); conditions: ACVR1 (Entrez ACVR1), 100 nM; read-out: Percent Control
[17] = biological target: 468 kinases including some pathogenic mutants (Homo sapiens, UniProt P36888, D835V); conditions: read-out: Percent Control
[18] = biological target: 468 kinases including some pathogenic mutants (Homo sapiens, UniProt Q9UPE1); conditions: SRPK3 (Entrez SRPK3), 1000 nM; read-out: Percent Control
[19] = biological target: 468 kinases including some pathogenic mutants (Homo sapiens, UniProt Q96BR1); conditions: SGK3 (Entrez SGK3), 100 nM; read-out: Percent Control
[20] = biological target: 468 kinases including some pathogenic mutants (Homo sapiens, UniProt Q9Y4K4); conditions: MAP4K5 (Entrez MAP4K5), 100 nM; read-out: Percent Control
468 kinases including some pathogenic mutants (Homo sapiens, UniProt Q9Y4K4), sequence (Q9Y4K4 whole entry, change not shown): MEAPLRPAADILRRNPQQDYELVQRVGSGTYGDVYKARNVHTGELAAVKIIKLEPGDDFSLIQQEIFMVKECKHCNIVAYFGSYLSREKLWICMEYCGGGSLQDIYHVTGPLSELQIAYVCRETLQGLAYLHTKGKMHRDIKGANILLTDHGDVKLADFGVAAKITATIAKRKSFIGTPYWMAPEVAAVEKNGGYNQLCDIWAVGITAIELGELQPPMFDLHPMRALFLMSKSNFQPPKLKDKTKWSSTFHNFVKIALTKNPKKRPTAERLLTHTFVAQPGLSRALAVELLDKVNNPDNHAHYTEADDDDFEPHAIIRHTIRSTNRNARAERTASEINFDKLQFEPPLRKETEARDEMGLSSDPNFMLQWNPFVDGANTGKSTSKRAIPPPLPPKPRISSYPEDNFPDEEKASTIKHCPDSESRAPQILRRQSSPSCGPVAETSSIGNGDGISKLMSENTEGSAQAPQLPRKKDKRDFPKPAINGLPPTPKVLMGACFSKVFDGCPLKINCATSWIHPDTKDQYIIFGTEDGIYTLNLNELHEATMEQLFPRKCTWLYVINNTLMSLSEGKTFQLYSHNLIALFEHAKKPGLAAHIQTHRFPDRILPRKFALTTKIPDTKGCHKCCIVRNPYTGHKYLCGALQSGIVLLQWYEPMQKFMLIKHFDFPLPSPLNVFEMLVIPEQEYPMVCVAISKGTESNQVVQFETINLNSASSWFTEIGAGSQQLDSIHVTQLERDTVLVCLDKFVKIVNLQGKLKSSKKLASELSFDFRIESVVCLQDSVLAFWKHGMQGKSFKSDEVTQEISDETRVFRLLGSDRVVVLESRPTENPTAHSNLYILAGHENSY

[21] = biological target: 468 kinases including some pathogenic mutants (Homo sapiens, UniProt O75116); conditions: ROCK2 (Entrez ROCK2), 100 nM; read-out: Percent Control
[22] = biological target: 468 kinases including some pathogenic mutants (Homo sapiens, UniProt Q9BX84); conditions: TRPM6 (Entrez TRPM6), 1000 nM; read-out: Percent Control
[23] = biological target: 468 kinases including some pathogenic mutants (Homo sapiens, UniProt P42679); conditions: CTK (Entrez MATK), 100 nM; read-out: Percent Control
[24] = biological target: 468 kinases including some pathogenic mutants (Homo sapiens, UniProt P36888); conditions: FLT3-autoinhibited (Entrez FLT3), 100 nM; read-out: Percent Control
[25] = biological target: 468 kinases including some pathogenic mutants (Homo sapiens, UniProt Q8NFD2); conditions: ANKK1 (Entrez ANKK1), 100 nM; read-out: Percent Control
468 kinases including some pathogenic mutants (Homo sapiens, UniProt Q8NFD2), sequence (Q8NFD2 whole entry, change not shown): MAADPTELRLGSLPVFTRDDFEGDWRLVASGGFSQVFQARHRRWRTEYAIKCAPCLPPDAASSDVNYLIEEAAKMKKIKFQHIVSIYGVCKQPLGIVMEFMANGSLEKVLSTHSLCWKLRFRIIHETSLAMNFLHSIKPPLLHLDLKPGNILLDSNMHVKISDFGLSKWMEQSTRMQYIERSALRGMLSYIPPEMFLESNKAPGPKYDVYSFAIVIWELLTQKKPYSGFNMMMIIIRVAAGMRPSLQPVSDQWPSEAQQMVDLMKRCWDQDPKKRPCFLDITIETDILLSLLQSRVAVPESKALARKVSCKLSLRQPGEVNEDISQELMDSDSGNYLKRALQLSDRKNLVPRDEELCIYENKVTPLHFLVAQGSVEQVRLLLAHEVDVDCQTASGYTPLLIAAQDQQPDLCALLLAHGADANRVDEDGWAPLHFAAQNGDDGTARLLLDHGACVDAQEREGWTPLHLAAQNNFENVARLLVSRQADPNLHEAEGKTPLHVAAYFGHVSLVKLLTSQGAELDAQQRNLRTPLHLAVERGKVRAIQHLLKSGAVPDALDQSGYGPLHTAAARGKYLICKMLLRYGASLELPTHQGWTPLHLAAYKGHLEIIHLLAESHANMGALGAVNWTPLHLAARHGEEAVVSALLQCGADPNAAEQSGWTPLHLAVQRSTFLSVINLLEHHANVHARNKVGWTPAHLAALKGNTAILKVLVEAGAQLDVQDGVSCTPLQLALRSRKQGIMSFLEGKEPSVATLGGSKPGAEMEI

[26] = biological target: 468 kinases including some pathogenic mutants (Homo sapiens, UniProt Q96J92); conditions: WNK4 (Entrez WNK4), 1000 nM; read-out: Percent Control
[27] = biological target: 468 kinases including some pathogenic mutants (Homo sapiens, UniProt P00533, L861Q); conditions: read-out: Percent Control
468 kinases including some pathogenic mutants (Homo sapiens, UniProt P00533, L861Q), sequence (P00533 25-1210 L861Q): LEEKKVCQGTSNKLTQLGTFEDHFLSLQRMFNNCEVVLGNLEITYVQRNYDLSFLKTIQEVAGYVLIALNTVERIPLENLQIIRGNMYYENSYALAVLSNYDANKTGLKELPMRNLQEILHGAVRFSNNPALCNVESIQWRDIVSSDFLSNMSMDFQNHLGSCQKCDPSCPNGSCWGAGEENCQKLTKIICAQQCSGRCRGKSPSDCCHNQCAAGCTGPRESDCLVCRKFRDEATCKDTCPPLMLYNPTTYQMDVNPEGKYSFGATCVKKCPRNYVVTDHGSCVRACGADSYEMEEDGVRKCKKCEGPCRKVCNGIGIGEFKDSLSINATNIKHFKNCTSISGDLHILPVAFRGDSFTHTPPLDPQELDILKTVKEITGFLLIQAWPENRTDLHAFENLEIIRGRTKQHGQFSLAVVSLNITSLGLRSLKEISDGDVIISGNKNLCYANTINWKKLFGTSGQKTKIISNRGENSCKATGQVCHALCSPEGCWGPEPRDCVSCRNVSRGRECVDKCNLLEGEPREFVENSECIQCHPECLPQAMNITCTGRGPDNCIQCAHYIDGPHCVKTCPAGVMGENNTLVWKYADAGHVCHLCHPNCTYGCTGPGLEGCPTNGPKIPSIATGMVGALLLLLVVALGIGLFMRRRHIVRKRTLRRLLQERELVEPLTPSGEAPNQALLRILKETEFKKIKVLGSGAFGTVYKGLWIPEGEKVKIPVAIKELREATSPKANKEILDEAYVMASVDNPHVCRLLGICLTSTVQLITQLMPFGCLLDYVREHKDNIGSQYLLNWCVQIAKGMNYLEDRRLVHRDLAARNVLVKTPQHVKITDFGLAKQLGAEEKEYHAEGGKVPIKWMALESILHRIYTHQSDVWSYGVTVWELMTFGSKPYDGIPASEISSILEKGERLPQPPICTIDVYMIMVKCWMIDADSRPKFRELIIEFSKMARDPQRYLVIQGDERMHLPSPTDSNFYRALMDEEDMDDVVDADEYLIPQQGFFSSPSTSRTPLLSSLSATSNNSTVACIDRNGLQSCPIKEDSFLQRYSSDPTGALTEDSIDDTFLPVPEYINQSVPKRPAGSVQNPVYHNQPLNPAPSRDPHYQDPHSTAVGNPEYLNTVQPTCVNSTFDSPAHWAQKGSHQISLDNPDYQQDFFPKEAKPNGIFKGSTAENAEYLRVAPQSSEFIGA

[28] = biological target: 468 kinases including some pathogenic mutants (Homo sapiens, UniProt Q15139); conditions: PRKD1 (Entrez PRKD1), 100 nM; read-out: Percent Control
[29] = biological target: 468 kinases including some pathogenic mutants (Homo sapiens, UniProt P08581); conditions: MET (Entrez MET), 100 nM; read-out: Percent Control

CN1C(=O)[C@@H](N2CCc3c(nn(Cc4ccccc4)c3C(N)=O)C2=O)COc2cc(Cl)ccc21 [Compound 10, (S)-2-benzyl-6-(8-chloro-5-methyl-4-oxo-2,3,4,5-tetrahydrobenzo[b][1,4]oxazepin-3-yl)-7-oxo-4,5,6,7-tetrahydro-2H-pyrazolo[3,4-c]pyridine-3-carboxamide]
remaining activity at 1 µM [1]: 100% | remaining activity at 0.1 µM [2]: 92% | remaining activity at 0.1 µM [3]: 69% | remaining activity at 1 µM [4]: 100% | remaining activity at 0.1 µM [5]: 89% | remaining activity at 0.1 µM [6]: 93% | remaining activity at 1 µM [7]: 100% | Percent Control ([8]; listed as LIJTF500025): 73% | remaining activity at 0.1 µM ([8]; read-out: Percent Control): 67% | remaining activity at 0.1 µM [9]: 91% | remaining activity at 1 µM [10]: 100% | remaining activity at 0.1 µM [11]: 100% | remaining activity at 0.1 µM [12]: 78% | remaining activity at 1 µM [13]: 100% | remaining activity at 0.1 µM [14]: 78% | remaining activity at 0.1 µM [15]: 100% | remaining activity at 0.1 µM [16]: 88% | remaining activity at 0.1 µM [17]: 88% | remaining activity at 1 µM [18]: 100% | remaining activity at 0.1 µM [19]: 90% | remaining activity at 0.1 µM [20]: 100% | remaining activity at 0.1 µM [21]: 75% | remaining activity at 1 µM [22]: 100% | remaining activity at 0.1 µM [23]: 100% | remaining activity at 0.1 µM [24]: 84% | remaining activity at 0.1 µM [25]: 77% | remaining activity at 1 µM [26]: 100% | remaining activity at 0.1 µM [27]: 100% | remaining activity at 0.1 µM [28]: 65% | remaining activity at 0.1 µM [29]: 99%
